For orientation: EC50 means the concentration giving half of the maximal effect. As usually defined, the solubility is the dissolved amount per volume that the medium holds. Higher therefore signals much dissolved substance.

20 molecules from patent US10766888B1, “HMOX1 inducers” (Mitobridge Inc., priority 2019, dated 2020) can be followed below.

Data set [1] has as its system Human Heme Oxygenase-1 (HMOX-1). Briefly: ELISA assay to measure human heme oxygenase-1 (HMOX-1) in HepG2 lysate. As to conditions: for EC50: human HMOX1 protein level in HepG2 lysate, * = average of 2 or more EC50 determinations, NA = Not Active, read-out: EC50. The format is cell-based. The procedure: Example 143. ELISA Assay to Measure Human Heme Oxygenase-1 (HMOX-1) in HepG2 lysate
Reagents and Technical Notes:
ELISA capture antibody, standard HO-1, detection antibody and streptavidin HRP were supplied in the DuoSet IC Human total HO-1 ELISA from R&D systems (DYC3776-2). The substrate cocktail was KPL LumiGLO reserve Chemiluminescent Substrate (54-71-00). PBS was Corning Cellgro Cell Culture (21-040-CV). 10×PBS+0.05% tween20 (PBST) was from KPL.
All incubations of the plate were at room temperature (20° C.) in a closed drawer.
The ELISA plate was processed manually. All loadings were with a multichannel pipet. Plates were emptied by shaking into the sink and tapping onto paper towels to remove any remaining reagent. Plate washing was accomplished by loading all wells with PBS+0.05% tween20 (PBST) using a squirt bottle, shaking the PBST out and tapping the plate onto paper towels.
Preparation of the ELISA Plate:
• 1. anti-HO-1 capture antibody was 1440 μg/ml after reconstitution in PBS. This antibody was diluted to 8 μg/ml in PBS and 50 μl per well was added to a 384 well greiner “lumitrac 200” plate. Incubated overnight. • 2. The plate was emptied and 100 μl PBS+1% BSA added to all wells. Incubated 90 minutes at room temperature. Preparation of HepG2 Lysate: • 1. Cells were cultured in a 96-well tissue culture plate washed with PBS and then the plate frozen at −70° C. overnight. Plates were allowed to warm to ice temperature in an ice bucket. 20 μl of PBS, 0.5% Triton X100, 1 mM EDTA with 1×HALT™ protease inhibitors was added to each well and the plates incubated on ice for 1 hour. • 2. The lysates were frozen at −20° C. overnight. Measurement of HMOX1 (“HO-1”) • 1. In a polypropylene 384 well plate, human HO-1 (after reconstitution in PBS+0.5% Triton+1 mM EDTA) was serially diluted from 20 ng/ml 2-fold in PBS+0.5% triton-X100, 1 mM EDTA to make a 12-point standard curve including a zero point. • 2. In a polypropylene 96 well plate, HepG2 lysate was diluted 1 to 20 in Diluent #4 from DUOSET kit in which the assay standard is also diluted. • 3. The PBS+1% BSA was emptied from the ELISA plate and 30 μl of all samples and standards were added (duplicates recommended). The plate was incubated 90 minutes. • 4. Emptied plate and washed 4 times with PBST. • 5. Diluted HO-1 detection antibody to 200 ng/ml in PBS+1% BSA and added 30 μl to all wells. Incubated 90 minutes. • 6. Emptied plate and washed 4 times with PBST. • 7. Added 30 μl streptavidin HRP at 1/200 in PBS+1% BSA (stock streptavidin concentration not specified) to all wells. Incubated 30 minutes. • 8. Emptied plate and washed 4 times with PBST. • 9. Diluted Lumiglo reserve reagent two parts buffer to one part lumiglo substrate. Added 30 μl to all wells. Incubated 5 minutes. • 10. Measured chemiluminescence on spectramax M5 using 150 ms integration.
Table 1 below lists EC50 and fold changes of human HMOX1 protein levels relative to DMSO control upon treatment with representative compounds.
A general note: ELISA stands for enzyme-linked immunosorbent assay.

Data set [2] can be described thus: Kinetic solubility. It is filed as physicochemical. As to conditions: Dulbecco's phosphate buffer saline (DPBS), aqueous buffer, kinetic from dmso stock, DPBS pH 7.4, 25° C., 200 μM test compound. The procedure:
Example 144. Kinetic Solubility
10 μL of 10 mM DMSO stock solution were aliquotted to 490 μL of DMSO solution and separately 490 μL of Dulbecco's phosphate buffer saline, DPBS, pH 7.4 solution in 1.2 mL 96-well plates in duplicate. Final concentration was 200 μM of the test compound. Samples were incubated at 25° C. with shaking at 200 rpm for 16 h. Samples were centrifuged at 3500 rpm for 20 min at 25° C., and supernatant was submitted for HPLC analysis.
Kinetic solubility was measured using the following equation: […]

Each structure is given as a SMILES string. Converted amounts (≈) assume the structure as drawn.

As for `CC(C)C(N)C(=O)OCCOCCNC(=O)c1ccc2c(c1)nc(Nc1nc3ccccc3o1)n2C.Cl` (racemic) [Example 30, 2-(2-(2-(benzo[d]oxazol-2-ylamino)-1-methyl-1H-benzo[d]imidazole-5-carboxamido)ethoxy)ethyl DL-valinate hydrochloride], the EC50 in data set [1] is 3500 nM. The same molecule had a solubility at 16 h in data set [2] of 3.2 µM.

For the molecule `COCCNC(=O)c1ccc2c(c1)nc(Nc1nc3ccc(C(F)(F)F)cc3o1)n2C` [Example 32, N-(2-methoxyethyl)-1-methyl-2-((6-(trifluoromethyl)benzo[d]oxazol-2-yl)amino)-1H-benzo[d]imidazole-5-carboxamide], the EC50 in data set [1] stood at 500 nM. Moreover, in data set [2], the solubility at 16 h is 1.4 µM (≈ 0.607 µg/mL).

Regarding `CC(O)CNC(=O)c1ccc2c(c1)nc(Nc1nc3ccc(C(F)(F)F)cc3o1)n2C` (centres unmarked) [Example 35, N-(2-hydroxypropyl)-1-methyl-2-((6-(trifluoromethyl)benzo[d]oxazol-2-yl)amino)-1H-benzo[d]imidazole-5-carboxamide], the half-maximal effective concentration (EC50) in data set [1] stood at 1200 nM. Also, in data set [2], the solubility at 16 h is less than 2 µM.

For the molecule `Cn1c(Nc2nc3ccc(C(F)(F)F)cc3o2)nc2cc(C(=O)NCCN3CCCC3)ccc21` [Example 36, 1-methyl-N-(2-(pyrrolidin-1-yl)ethyl)-2-((6-(trifluoromethyl)benzo[d]oxazol-2-yl)amino)-1H-benzo[d]imidazole-5-carboxamide], the EC50 in data set [1] came to 1300 nM. The molecule further came in with a solubility at 16 h in data set [2] of 2.8 µM (≈ 1.32 µg/mL).

Turning to `CC(O)COCCNC(=O)c1ccc2c(c1)nc(Nc1nc3ccc(C(F)(F)F)cc3o1)n2C` (centres unmarked) [Example 38, N-(2-(2-hydroxypropoxy)ethyl)-1-methyl-2-((6-(trifluoromethyl)benzo[d]oxazol-2-yl)amino)-1H-benzo[d]imidazole-5-carboxamide], the EC50 in data set [1] came to 1300 nM. Also, the solubility at 16 h in data set [2] is less than 2 µM.

On to `Cn1c(Nc2nc3ccc(C(F)(F)F)cc3o2)nc2cc(C(=O)NCC(O)CO)ccc21` (centres unmarked) [Example 39, N-(2,3-dihydroxypropyl)-1-methyl-2-((6-(trifluoromethyl)benzo[d]oxazol-2-yl)amino)-1H-benzo[d]imidazole-5-carboxamide], for which the EC50 in data set [1] stood at 950 nM. Moreover, the solubility at 16 h in data set [2] is 2.1 µM (≈ 0.944 µg/mL).

With `CN(C)CC(=O)NCCNC(=O)c1ccc2c(c1)nc(Nc1nc3ccc(C(F)(F)F)cc3o1)n2C` [Example 40, N-(2-(2-(dimethylamino)acetamido)ethyl)-1-methyl-2-((6-(trifluoromethyl)benzo[d]oxazol-2-yl)amino)-1H-benzo[d]imidazole-5-carboxamide], in data set [1], the EC50 is 690 nM. This molecule also displayed a solubility at 16 h in data set [2] of 0.5 µM (≈ 0.252 µg/mL).

As to `Cn1c(Nc2nc3ccc(C(F)(F)F)cc3o2)nc2cc(C(=O)NCCOCC(=O)O)ccc21` [Example 41, 2-(2-(1-methyl-2-((6-(trifluoromethyl)benzo[d]oxazol-2-yl)amino)-1H-benzo[d]imidazole-5-carboxamido)ethoxy)acetic acid], the EC50 in data set [1] turned out to be 4800 nM. Further, in data set [2], the solubility at 16 h amounted to 13.8 µM (≈ 6.59 µg/mL).

Turning to `Cn1c(Nc2nc3ccc(C(F)(F)F)cc3o2)nc2cc(C(=O)NCCOCC(C)(C)O)ccc21` [Example 42, N-(2-(2-hydroxy-2-methylpropoxy)ethyl)-1-methyl-2-((6-(trifluoromethyl)benzo[d]oxazol-2-yl)amino)-1H-benzo[d]imidazole-5-carboxamide], the “Maximum Fold induction” value in data set [1] (fold change of human HMOX1 protein level relative to DMSO control, HepG2) was found to be 29 fold. In addition, the EC50 in data set [1] is 2300 nM. Besides, the solubility at 16 h in data set [2] was determined as 3.6 µM (≈ 1.77 µg/mL).

In the case of `Cn1c(Nc2nc3cc(C(F)(F)F)ccc3o2)nc2cc(C(=O)NCCOCCO)ccc21` [Example 43, N-(2-(2-hydroxyethoxy)ethyl)-1-methyl-2-((5-(trifluoromethyl)benzo[d]oxazol-2-yl)amino)-1H-benzo[d]imidazole-5-carboxamide], the EC50 in data set [1] amounted to 1300 nM. The solubility at 16 h in data set [2] was 8 µM (≈ 3.71 µg/mL).

Turning to `COCCNC(=O)c1ccc2c(c1)nc(Nc1nc3ccc(OC(F)(F)F)cc3o1)n2C` [Example 45, N-(2-methoxyethyl)-1-methyl-2-((6-(trifluoromethoxy)benzo[d]oxazol-2-yl)amino)-1H-benzo[d]imidazole-5-carboxamide], the EC50 in data set [1] was 640 nM. The solubility at 16 h in data set [2] stood at 0.2 µM (≈ 0.0899 µg/mL).

In the case of `Cn1c(Nc2nc3ccc(OC(F)(F)F)cc3o2)nc2cc(C(=O)Nc3cn[nH]c3)ccc21` [Example 46, 1-methyl-N-(1H-pyrazol-4-yl)-2-((6-(trifluoromethoxy)benzo[d]oxazol-2-yl)amino)-1H-benzo[d]imidazole-5-carboxamide], the EC50 in data set [1] was determined as 2200 nM. Also, the solubility at 16 h in data set [2] was less than 5 µM.

As for `Cn1c(Nc2nc3ccc(OC(F)(F)F)cc3o2)nc2cc(C(=O)NC(CO)(CO)CO)ccc21` [Example 47, N-(1,3-dihydroxy-2-(hydroxymethyl)propan-2-yl)-1-methyl-2-((6-(trifluoromethoxy)benzo[d]oxazol-2-yl)amino)-1H-benzo[d]imidazole-5-carboxamide], the EC50 in data set [1] stood at 1600 nM. Besides, the solubility at 16 h in data set [2] is less than 2 µM.

`Cn1c(Nc2nc3ccc(OC(F)(F)F)cc3o2)nc2cc(C(=O)NC(CO)CO)ccc21` [Example 48, N-(1,3-dihydroxypropan-2-yl)-1-methyl-2-((6-(trifluoromethoxy)benzo[d]oxazol-2-yl)amino)-1H-benzo[d]imidazole-5-carboxamide]: in data set [1], the EC50 was determined as 2000 nM. Besides, in data set [2], the solubility at 16 h is 3.9 µM (≈ 1.82 µg/mL).

Regarding `CN(C)CC(=O)NCCNC(=O)c1ccc2c(c1)nc(Nc1nc3ccc(OC(F)(F)F)cc3o1)n2C` [Example 49, N-(2-(2-(dimethylamino)acetamido)ethyl)-1-methyl-2-((6-(trifluoromethoxy)benzo[d]oxazol-2-yl)amino)-1H-benzo[d]imidazole-5-carboxamide], in data set [1], the EC50 worked out at 800 nM. For the same molecule, the solubility at 16 h in data set [2] is less than 2 µM.

For the molecule `Cn1c(Nc2nc3ccc(OC(F)(F)F)cc3o2)nc2cc(C(=O)NC3COC3)ccc21` [Example 51, 1-methyl-N-(oxetan-3-yl)-2-((6-(trifluoromethoxy)benzo[d]oxazol-2-yl)amino)-1H-benzo[d]imidazole-5-carboxamide], the EC50 in data set [1] was 1400 nM. Also, the solubility at 16 h in data set [2] is less than 2 µM.

Turning to `Cn1c(Nc2nc3ccc(OC(F)(F)F)cc3o2)nc2cc(C(=O)NCC3(O)COC3)ccc21` [Example 52, N-((3-hydroxyoxetan-3-yl)methyl)-1-methyl-2-((6-(trifluoromethoxy)benzo[d]oxazol-2-yl)amino)-1H-benzo[d]imidazole-5-carboxamide], in data set [1], the EC50 was found to be 1000 nM. Besides, the solubility at 16 h in data set [2] is less than 2 µM.

In the case of `COCCNC(=O)c1ccc2c(c1)nc(Nc1nc3ccc(C(C)C)cc3o1)n2C` [Example 60, 2-((6-isopropylbenzo[d]oxazol-2-yl)amino)-N-(2-methoxyethyl)-1-methyl-1H-benzo[d]imidazole-5-carboxamide], the EC50 in data set [1] came out at 700 nM. Also, the solubility at 16 h in data set [2] is 0.9 µM (≈ 0.367 µg/mL).

As for `CC(C)c1ccc2nc(Nc3nc4cc(C(=O)NCCO)ccc4n3C)oc2c1` [Example 61, N-(2-hydroxyethyl)-2-((6-isopropylbenzo[d]oxazol-2-yl)amino)-1-methyl-1H-benzo[d]imidazole-5-carboxamide], the EC50 in data set [1] came to 1500 nM. The solubility at 16 h in data set [2] was 1.2 µM (≈ 0.472 µg/mL).

Regarding `COCCNC(=O)c1ccc2c(c1)nc(Nc1nc3ccc(OC(F)F)cc3o1)n2C` [Example 63, 2-((6-(difluoromethoxy)benzo[d]oxazol-2-yl)amino)-N-(2-methoxyethyl)-1-methyl-1H-benzo[d]imidazole-5-carboxamide], the concentration for a half-maximal effect (EC50) in data set [1] amounted to 1300 nM. For the same molecule, the solubility at 16 h in data set [2] worked out at 0.8 µM (≈ 0.345 µg/mL).
